Experimental data published in ChEMBL document CHEMBL4177767, “Discovery of N2-(4-Amino-cyclohexyl)-9-cyclopentyl- N6-(4-morpholin-4-ylmethyl-phenyl)- 9H-purine-2,6-diamine as a Potent FLT3 Kinase Inhibitor for Acute Myeloid Leukemia with FLT3 Mutations” (J Med Chem, 2018).
The source made the active and inactive calls. The calls are words filed in the database; no cut-off is given here.

Tests used:
[1] = system: MV4-11; assay: Cell cycle arrest in human MV4-11 cells assessed as accumulation at G2/M phase at 0.01 nM after 24 hrs by propidium iodide staining-based flow cytometric method (reference value: 15.9%); type: functional
[2] = in vitro; details: human, BJ cells
[3] = target: High affinity nerve growth factor receptor (Homo sapiens) (UniProt P04629); details: 10 nM
Description: Inhibition of human N-terminal GST-tagged TRK cytoplasmic domain expressed in baculovirus expression system at 10 nM relative to control

[4] = system: MV4-11; assay: Cell cycle arrest in human MV4-11 cells assessed as accumulation at sub-G1 phase at 10 nM after 24 hrs by propidium iodide staining-based flow cytometric method (reference value: 9.2%); type: functional
[5] = target: Calcium/calmodulin-dependent protein kinase type II subunit delta (Homo sapiens) (UniProt Q13557); details: 10 nM
Chain of Calcium/calmodulin-dependent protein kinase type II subunit delta (Homo sapiens) (Q13557 whole entry): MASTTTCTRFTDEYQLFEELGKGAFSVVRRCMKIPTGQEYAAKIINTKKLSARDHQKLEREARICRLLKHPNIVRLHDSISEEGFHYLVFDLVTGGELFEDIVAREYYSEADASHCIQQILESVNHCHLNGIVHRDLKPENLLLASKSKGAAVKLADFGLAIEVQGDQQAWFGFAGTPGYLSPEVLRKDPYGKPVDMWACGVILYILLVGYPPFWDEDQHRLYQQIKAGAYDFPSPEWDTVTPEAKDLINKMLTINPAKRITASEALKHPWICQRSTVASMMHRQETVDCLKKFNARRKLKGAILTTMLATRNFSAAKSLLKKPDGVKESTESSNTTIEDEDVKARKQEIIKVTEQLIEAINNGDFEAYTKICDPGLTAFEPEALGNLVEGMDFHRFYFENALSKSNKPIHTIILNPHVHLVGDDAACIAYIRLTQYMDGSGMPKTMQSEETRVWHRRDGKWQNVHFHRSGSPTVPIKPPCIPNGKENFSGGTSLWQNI
Description: Inhibition of full length human N-terminal GST-tagged CaMK2delta expressed in baculovirus expression system at 10 nM relative to control

[6] = target: T1, Receptor-type tyrosine-protein kinase FLT3 (Homo sapiens, UniProt P36888); assay: biochemical; type: cell-based, Sf9
T1 sequence (P36888 whole entry): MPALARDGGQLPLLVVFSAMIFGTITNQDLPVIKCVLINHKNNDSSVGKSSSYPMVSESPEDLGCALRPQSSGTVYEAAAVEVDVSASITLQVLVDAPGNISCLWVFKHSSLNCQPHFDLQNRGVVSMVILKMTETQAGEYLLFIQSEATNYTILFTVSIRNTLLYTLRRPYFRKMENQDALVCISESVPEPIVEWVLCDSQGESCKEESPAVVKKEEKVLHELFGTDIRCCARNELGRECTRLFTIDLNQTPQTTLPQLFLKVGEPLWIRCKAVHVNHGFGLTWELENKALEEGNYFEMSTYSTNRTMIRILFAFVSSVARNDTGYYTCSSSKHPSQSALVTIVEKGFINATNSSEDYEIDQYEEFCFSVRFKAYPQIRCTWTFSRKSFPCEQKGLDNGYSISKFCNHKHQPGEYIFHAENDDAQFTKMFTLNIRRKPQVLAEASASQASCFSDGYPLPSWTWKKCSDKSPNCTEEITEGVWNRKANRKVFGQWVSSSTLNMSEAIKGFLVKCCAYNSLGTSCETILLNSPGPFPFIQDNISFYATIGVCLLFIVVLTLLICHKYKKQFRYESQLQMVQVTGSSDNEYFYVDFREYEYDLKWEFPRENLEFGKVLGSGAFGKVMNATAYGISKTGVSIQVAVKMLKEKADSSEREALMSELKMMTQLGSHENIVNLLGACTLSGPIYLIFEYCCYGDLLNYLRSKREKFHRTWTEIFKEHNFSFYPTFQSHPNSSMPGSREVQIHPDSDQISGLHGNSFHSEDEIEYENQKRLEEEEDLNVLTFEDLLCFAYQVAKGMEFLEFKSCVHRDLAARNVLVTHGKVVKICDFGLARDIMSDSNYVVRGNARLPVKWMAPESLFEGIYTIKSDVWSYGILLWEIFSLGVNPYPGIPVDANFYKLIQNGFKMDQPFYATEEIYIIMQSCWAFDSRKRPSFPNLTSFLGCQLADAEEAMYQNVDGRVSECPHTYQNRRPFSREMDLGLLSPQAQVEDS
Description: Inhibition of N-terminal GST/His6-fused recombinant wild type human FLT3 (R571 to S993 residues) expressed in Sf9 insect cells using poly (Ala,Glu,Lys,Tyr) 6:2:5:1 hydrobromide as substrate in presence of [gamma-33P]ATP

[7] = system: MV4-11; assay: Cell cycle arrest in human MV4-11 cells assessed as accumulation at sub-G1 phase at 100 nM after 24 hrs by propidium iodide staining-based flow cytometric method (reference value: 9.2%); type: functional
[8] = system: MV4-11; assay: Cell cycle arrest in human MV4-11 cells assessed as accumulation at G1 phase at 100 nM after 24 hrs by propidium iodide staining-based flow cytometric method (reference value: 56%); type: functional
[9] = system: Receptor-type tyrosine-protein kinase FLT3 (Homo sapiens), P36888 [UNDEFINED MUTATION]; details: MV4-11, at 0.01 to 100 nM
Description: Inhibition of FLT3 ITD mutant in human MV4-11 cells assessed as decrease in MEK1/2 phosphorylation at S217/221 at 0.01 to 100 nM after 1 hr by immunoblot analysis

[10] = system: MV4-11; assay: Cell cycle arrest in human MV4-11 cells assessed as accumulation at G1 phase at 0.1 nM after 24 hrs by propidium iodide staining-based flow cytometric method (reference value: 56%); type: functional
[11] = target: Dual specificity protein kinase CLK1 (Homo sapiens) (UniProt P49759); details: 10 nM
Chain of Dual specificity protein kinase CLK1 (Homo sapiens) (P49759 whole entry, looked up): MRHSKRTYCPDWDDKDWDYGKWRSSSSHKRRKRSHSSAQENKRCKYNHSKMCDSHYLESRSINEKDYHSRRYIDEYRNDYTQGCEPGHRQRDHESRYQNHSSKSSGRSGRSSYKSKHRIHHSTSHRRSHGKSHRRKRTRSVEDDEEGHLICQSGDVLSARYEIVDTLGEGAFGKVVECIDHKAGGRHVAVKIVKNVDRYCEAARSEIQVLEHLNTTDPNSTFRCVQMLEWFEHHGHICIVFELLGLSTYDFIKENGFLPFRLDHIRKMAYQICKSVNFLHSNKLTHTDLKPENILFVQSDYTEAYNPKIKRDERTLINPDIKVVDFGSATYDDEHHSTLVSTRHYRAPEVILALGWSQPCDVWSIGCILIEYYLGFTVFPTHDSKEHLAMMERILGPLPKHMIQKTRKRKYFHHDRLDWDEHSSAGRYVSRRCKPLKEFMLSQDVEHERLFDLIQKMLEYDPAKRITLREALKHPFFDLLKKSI
Description: Inhibition of human N-terminal GST-tagged CLK1 catalytic domain expressed in baculovirus expression system at 10 nM relative to control

[12] = target: Activated CDC42 kinase 1 (Homo sapiens) (UniProt Q07912); details: 10 nM
Chain of Activated CDC42 kinase 1 (Homo sapiens) (Q07912 whole entry, looked up): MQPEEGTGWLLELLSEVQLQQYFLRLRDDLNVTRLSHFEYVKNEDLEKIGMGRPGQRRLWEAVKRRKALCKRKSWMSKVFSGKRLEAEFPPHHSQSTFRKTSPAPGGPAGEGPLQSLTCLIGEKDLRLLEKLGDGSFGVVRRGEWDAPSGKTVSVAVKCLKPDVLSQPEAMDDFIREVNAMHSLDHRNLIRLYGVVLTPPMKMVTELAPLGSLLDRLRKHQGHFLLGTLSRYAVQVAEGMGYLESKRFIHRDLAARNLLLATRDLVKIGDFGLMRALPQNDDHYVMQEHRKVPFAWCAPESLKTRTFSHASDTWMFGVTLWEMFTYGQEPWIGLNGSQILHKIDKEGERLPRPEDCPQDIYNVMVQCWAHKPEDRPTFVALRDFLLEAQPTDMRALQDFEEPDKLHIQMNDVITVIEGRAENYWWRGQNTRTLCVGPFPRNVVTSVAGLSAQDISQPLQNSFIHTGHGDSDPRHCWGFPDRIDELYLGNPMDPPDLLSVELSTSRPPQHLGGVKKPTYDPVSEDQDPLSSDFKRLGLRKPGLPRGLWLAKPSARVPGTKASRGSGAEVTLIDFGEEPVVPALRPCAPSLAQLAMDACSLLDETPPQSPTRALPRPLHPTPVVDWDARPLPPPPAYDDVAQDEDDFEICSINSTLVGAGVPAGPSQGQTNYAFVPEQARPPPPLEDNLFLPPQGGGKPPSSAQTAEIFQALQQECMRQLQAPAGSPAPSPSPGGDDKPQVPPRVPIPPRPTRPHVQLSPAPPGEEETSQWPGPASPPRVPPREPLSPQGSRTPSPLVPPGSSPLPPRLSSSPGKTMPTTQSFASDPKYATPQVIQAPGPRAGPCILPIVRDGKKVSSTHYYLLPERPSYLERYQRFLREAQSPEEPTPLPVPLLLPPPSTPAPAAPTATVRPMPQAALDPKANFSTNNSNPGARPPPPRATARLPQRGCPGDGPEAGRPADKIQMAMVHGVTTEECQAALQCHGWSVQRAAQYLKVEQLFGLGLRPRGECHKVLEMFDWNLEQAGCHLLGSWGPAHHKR
Description: Inhibition of human N-terminal GST-tagged ACK catalytic domain expressed in baculovirus expression system at 10 nM relative to control

[13] = system: Mus musculus; assay: In vivo inhibition of FLT3 ITD mutant in human MV4-11 cells xenografted in athymic nu/nu mouse assessed as decrease in STAT5 phosphorylation at Y694 at 10 mg/kg, ip after 24 hrs by immunoblot method relative to control; type: functional; details: MV4-11, ip
[14] = target: Proto-oncogene tyrosine-protein kinase Src (Homo sapiens) (UniProt P12931); details: 10 nM
Chain of Proto-oncogene tyrosine-protein kinase Src (Homo sapiens) (P12931 2-536 limits assumed): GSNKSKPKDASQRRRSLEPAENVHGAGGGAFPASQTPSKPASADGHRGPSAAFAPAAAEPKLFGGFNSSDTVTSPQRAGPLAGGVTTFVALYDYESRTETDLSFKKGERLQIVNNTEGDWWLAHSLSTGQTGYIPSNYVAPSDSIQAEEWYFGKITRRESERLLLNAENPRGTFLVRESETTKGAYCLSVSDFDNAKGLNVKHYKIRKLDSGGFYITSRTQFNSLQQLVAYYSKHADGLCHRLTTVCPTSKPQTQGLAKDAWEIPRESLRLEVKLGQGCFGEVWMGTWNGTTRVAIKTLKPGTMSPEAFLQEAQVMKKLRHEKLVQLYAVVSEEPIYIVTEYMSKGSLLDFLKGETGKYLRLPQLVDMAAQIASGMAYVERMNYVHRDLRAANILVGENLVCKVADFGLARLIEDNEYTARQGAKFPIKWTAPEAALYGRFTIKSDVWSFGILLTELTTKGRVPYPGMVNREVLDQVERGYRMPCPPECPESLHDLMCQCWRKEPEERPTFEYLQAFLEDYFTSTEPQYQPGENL
Description: Inhibition of full length human N-terminal GST-tagged SRC expressed in baculovirus expression system at 10 nM relative to control

[15] = target: Receptor-type tyrosine-protein kinase FLT3 (Homo sapiens, UniProt P36888, D835Y); assay: biochemical; type: cell-based, Sf9
Description: Inhibition of N-terminal GST/His6-fused recombinant human FLT3 (R571 to S993 residues) D835Y mutant expressed in Sf9 insect cells using poly (Ala,Glu,Lys,Tyr) 6:2:5:1 hydrobromide as substrate in presence of [gamma-33P]ATP

[16] = target: Serine/threonine-protein kinase SIK1 (Homo sapiens) (UniProt P57059); details: 10 nM
Chain of Serine/threonine-protein kinase SIK1 (Homo sapiens) (P57059 whole entry): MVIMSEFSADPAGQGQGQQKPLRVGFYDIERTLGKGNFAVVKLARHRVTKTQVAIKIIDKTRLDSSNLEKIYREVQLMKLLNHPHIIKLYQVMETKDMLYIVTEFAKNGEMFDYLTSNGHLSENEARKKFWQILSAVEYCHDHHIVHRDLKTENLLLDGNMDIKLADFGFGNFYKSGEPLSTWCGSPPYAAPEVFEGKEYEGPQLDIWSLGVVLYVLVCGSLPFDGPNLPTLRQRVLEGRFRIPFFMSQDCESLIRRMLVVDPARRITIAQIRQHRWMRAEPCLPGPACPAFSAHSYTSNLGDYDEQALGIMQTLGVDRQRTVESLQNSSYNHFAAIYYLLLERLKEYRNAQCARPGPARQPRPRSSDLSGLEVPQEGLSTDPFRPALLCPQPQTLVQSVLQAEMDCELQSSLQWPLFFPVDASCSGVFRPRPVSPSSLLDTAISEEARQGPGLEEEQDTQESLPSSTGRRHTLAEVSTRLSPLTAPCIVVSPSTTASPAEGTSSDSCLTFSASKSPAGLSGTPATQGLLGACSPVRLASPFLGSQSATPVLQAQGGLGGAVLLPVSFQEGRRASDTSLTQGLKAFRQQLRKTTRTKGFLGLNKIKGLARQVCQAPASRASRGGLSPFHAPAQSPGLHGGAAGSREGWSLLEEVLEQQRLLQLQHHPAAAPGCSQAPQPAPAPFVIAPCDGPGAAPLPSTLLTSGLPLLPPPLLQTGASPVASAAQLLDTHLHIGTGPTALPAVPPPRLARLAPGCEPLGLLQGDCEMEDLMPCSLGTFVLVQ
Description: Inhibition of full length human N-terminal GST-tagged SIK expressed in baculovirus expression system at 10 nM relative to control

[17] = in vitro; details: human, HUVEC
[18] = system: K562; assay: cells; details: Homo sapiens, K562, 72 h
[19] = target: Calcium/calmodulin-dependent protein kinase type II subunit gamma (Homo sapiens) (UniProt Q13555); details: 10 nM
Chain of Calcium/calmodulin-dependent protein kinase type II subunit gamma (Homo sapiens) (Q13555 whole entry): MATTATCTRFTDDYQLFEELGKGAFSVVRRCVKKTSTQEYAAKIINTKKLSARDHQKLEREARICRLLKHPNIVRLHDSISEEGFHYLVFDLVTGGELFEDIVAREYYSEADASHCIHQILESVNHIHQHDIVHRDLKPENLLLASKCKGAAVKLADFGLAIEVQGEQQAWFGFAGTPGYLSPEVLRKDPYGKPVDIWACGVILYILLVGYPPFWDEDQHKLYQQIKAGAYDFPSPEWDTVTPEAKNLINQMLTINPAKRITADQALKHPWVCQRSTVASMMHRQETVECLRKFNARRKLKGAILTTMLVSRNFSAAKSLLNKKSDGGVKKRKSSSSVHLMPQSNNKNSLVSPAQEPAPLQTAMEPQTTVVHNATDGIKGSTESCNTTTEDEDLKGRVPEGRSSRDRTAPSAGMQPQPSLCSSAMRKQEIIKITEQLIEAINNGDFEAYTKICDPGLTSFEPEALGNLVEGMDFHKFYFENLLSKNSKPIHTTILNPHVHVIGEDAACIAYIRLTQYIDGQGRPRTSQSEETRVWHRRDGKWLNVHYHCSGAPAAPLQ
Description: Inhibition of full length human N-terminal GST-tagged CAMK2gamma expressed in baculovirus expression system at 10 nM relative to control

[20] = system: MV4-11; assay: Cell cycle arrest in human MV4-11 cells assessed as accumulation at G2/M phase at 1 nM after 24 hrs by propidium iodide staining-based flow cytometric method (reference value: 15.9%); type: functional
[21] = system: MV4-11; assay: Growth inhibition of human MV4-11 cells after 72 hrs by calcein AM dye-based fluorescence assay; type: functional; details: MV4-11, 72 h
[22] = target: Tyrosine-protein kinase Yes (Homo sapiens) (UniProt P07947); details: 10 nM
Description: Inhibition of human full length N-terminal GST-tagged Yes expressed in baculovirus expression system at 10 nM relative to control

[23] = target: Platelet-derived growth factor receptor beta (Homo sapiens) (UniProt P09619); details: 10 nM
Chain of Platelet-derived growth factor receptor beta (Homo sapiens) (P09619 whole entry): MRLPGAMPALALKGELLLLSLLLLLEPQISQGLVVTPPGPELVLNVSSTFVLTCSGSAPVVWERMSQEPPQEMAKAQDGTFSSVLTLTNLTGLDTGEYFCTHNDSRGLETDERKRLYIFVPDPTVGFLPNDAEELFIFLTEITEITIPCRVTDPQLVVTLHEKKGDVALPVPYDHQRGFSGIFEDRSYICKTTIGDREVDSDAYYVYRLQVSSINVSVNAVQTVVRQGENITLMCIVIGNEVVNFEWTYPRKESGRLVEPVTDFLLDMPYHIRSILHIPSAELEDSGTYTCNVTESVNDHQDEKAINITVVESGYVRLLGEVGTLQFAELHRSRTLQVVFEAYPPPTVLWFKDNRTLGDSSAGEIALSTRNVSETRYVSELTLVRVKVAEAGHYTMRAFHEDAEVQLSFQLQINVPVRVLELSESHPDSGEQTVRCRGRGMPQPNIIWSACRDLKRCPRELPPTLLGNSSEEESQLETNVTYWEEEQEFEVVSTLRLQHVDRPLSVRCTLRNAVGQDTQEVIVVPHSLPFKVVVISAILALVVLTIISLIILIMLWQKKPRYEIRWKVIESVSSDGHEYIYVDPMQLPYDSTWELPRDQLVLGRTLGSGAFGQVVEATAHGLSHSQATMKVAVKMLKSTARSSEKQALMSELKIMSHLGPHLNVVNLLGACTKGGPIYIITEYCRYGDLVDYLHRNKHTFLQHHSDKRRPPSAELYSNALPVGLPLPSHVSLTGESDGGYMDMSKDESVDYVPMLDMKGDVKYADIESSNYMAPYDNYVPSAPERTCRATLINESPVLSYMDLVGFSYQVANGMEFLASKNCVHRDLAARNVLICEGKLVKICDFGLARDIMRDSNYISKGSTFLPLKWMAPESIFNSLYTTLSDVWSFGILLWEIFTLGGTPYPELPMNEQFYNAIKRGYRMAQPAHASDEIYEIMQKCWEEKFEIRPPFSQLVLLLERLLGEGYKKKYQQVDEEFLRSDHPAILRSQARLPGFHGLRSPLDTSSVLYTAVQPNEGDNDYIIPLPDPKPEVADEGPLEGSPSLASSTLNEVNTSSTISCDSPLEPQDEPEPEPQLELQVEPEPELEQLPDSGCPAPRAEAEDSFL
Description: Inhibition of human N-terminal GST-tagged PDGFRbeta cytoplasmic domain expressed in baculovirus expression system at 10 nM relative to control

[24] = system: MV4-11; assay: Induction of apoptosis in human MV4-11 cells assessed as increase in PARP1 cleavage at 10 to 100 nM after 24 hrs by immunoblot method; type: functional, cell-based
[25] = system: Rattus norvegicus; assay: Toxicity in Wistar rat assessed as pathological macroscopic changes at 100 mg/kg, iv after 15 days; type: organism-based; details: in vivo, 360 h
[26] = system: K562; assay: Induction of apoptosis in human K562 cells assessed as increase in caspase-3/7 activity using Ac-DEVD-AMC substrate after 24 hrs by fluorescence assay; type: functional, cell-based
[27] = system: MV4-11; assay: Cell cycle arrest in human MV4-11 cells assessed as accumulation at G1 phase at 10 nM after 24 hrs by propidium iodide staining-based flow cytometric method (reference value: 56%); type: functional

## N[C@H]1CC[C@H](Nc2nc(Nc3ccc(CN4CCOCC4)cc3)c3ncn(C4CCCC4)c3n2)CC1
[1]
  Activity: 14.5%
[2]
  GI50 at 72 h: 12.7 µM
[3]
  inhibition: > 90%
[4]
  Activity: 42.9%
[5]
  inhibition: > 90%
[6]
  IC50: 13 nM
[7]
  Activity: 45.9%
[8]
  Activity: 95%
[9]
  inhibition: Active
[10]
  Activity: 59.7%
[11]
  inhibition: > 90%
[12]
  inhibition: > 90%
[13]
  inhibition in vivo at 10 mg/kg: 95%
[14]
  inhibition: > 90%
[15]
  IC50: 8 nM
[16]
  inhibition: > 90%
[17]
  GI50 at 72 h: 5.87 µM
[18]
  GI50: 380 nM
[19]
  inhibition: > 90%
[20]
  Activity: 1.1%
[21]
  GI50: 2 nM
[22]
  inhibition: > 90%
[23]
  inhibition: > 90%
[24]
  Activity: Active
[25]
  Activity: Non-Toxic
[26]
  Activity: inactive
[27]
  Activity: 96.5%
